US10131663B2, “Chemical compounds” (AstraZeneca AB, priority 2016, dated 2018)
In brackets after ≈: the same amount, converted by molar mass.

Legend:
[1] = target: T1, Estrogen Receptor (ERα) in MCF-7 cells (Homo sapiens (Human), UniProt P03372); assay: Western blotting assay, ER down-regulation in MCF-7; format: cell-based; details: 100 nM compound, 48 h, normalised to 100 nM fulvestrant
Protocol: (§1) Cells were incubated with compounds (100 nM) or vehicle control (0.1% DMSO) for 48 h at 37° C., 5% CO2 before washing once with PBS and lysing with 80 μl lysis buffer (25 mM Tris/HCl, 3 mM EDTA, 3 mM EGTA, 50 mM NaF, 2 mM sodium orthovanadate, 0.27 M sucrose, 10 mM β-glycerophosphate, 5 mM sodium pyrophosphate, 0.5% TritonX-100, pH 6.8) on ice.
(§2) Samples were boiled for 10 min at 95° C. and then frozen at −20° C. until ready for use.
(§3) The blot was stained with Ponceau S (P7170, Sigma) and cut according to appropriate molecular weight markers.
(§4) Membranes were blocked for 1 hour at room temp in 5% Marvel (w/v) in phosphate-buffered saline containing 0.05% Tween™ 20 (PBS/Tween). Blots were then incubated with anti-ERα (SP1) rabbit monoclonal antibody (Thermofisher) diluted 1:1000 at 4° C. overnight (with gentle shaking) followed by several washes with PBS/Tween. […] All antibodies were made up in 5% Marvel (w/v) in PBS/Tween.
(§5) Down-regulation of the ERα receptor was normalised to the vehicle control (0% down-regulation) and the 100 nM fulvestrant control (100% down-regulation) run within the same gel.

[2] = Human plasma protein binding (equilibrium dialysis); format: in vitro ADME; details: dialysis 18 hours
How it was run: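 Fraction unbound (fu %) in human plasma, from LC/MSMS of plasma and buffer sides (7-point plasma calibration) after 18 h rapid equilibrium dialysis. Single determinations, with compounds pooled up to 10 per plasma pool.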

[3] = log D (shake flask, 1-octanol/aqueous buffer); format: physicochemical
How it was run: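 Distribution between 1-octanol and aqueous buffer at pH 7.4 was measured by shake flask, with compounds run in mixtures of ten. Relative concentrations in each phase were quantified by UPLC with quantitative MS. Caffeine served as a low-log D QC sample in all runs.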

[4] = target: T1, Estrogen Receptor (ERα) in MCF-7 cells; assay: MCF-7 ER down-regulation assay (immuno-fluorescence); format: cell-based
How it was run: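 Compounds dispensed acoustically from DMSO stocks onto MCF-7 cells; cells fixed 20 min at room temperature, then automated immunostaining for ERα with overnight incubation at 4° C. Read-out is mean total ER fluorescence intensity normalized to cell number (intensity per cell), with curve fitting for concentration-response values.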

[5] = target: estrogen receptor (ERα) in CAMA-1 cells (Homo sapiens (Human), UniProt P03372); assay: Western blotting assay, ER down-regulation in CAMA-1; format: cell-based; details: 100 nM compound, 48 h, normalised to 100 nM fulvestrant
Chain of estrogen receptor (ERα) in CAMA-1 cells (P03372 whole entry): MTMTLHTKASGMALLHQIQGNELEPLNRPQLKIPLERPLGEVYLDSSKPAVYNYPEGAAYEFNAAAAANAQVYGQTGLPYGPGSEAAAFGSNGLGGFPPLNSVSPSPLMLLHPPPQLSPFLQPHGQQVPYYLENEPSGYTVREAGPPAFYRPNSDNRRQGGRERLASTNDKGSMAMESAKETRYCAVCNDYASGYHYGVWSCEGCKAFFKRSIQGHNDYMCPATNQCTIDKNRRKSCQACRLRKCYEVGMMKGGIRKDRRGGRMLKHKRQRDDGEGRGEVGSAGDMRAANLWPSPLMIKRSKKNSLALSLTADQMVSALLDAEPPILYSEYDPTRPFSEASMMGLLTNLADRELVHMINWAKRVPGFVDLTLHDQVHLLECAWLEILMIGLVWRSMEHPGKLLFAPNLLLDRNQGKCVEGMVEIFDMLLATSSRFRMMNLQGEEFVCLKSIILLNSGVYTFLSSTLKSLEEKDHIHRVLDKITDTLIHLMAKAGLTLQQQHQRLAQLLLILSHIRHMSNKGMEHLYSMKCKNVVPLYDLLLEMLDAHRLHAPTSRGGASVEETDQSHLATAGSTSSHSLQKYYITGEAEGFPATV
Protocol: as §1, §2, §3, §4, §5

[6] = target: recombinant human Estrogen Receptor alpha ligand binding domain (ER alpha-LBD (GST)) (Homo sapiens (Human), UniProt P03372); assay: ERα binding assay (LanthaScreen TR-FRET competition); details: TR-FRET, displacement of Fluormone ES2
Chain of recombinant human Estrogen Receptor alpha ligand binding domain (ER alpha-LBD (GST)) (P03372 307-554): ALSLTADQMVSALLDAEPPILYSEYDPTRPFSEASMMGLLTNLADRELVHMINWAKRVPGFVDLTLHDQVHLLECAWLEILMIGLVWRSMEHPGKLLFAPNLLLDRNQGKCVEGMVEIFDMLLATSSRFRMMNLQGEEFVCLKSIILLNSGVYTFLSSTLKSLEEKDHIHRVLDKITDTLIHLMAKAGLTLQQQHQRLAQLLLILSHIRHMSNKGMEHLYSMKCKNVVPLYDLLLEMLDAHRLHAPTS
How it was run: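 Competition binding to GST-tagged human ERα ligand-binding domain, read by LanthaScreen TR-FRET: Tb-anti-GST antibody labels the receptor and compounds displace a fluorescent tracer, lowering the signal. IC50 was taken from dose-response curve fitting.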

[7] = Thermodynamic solubility (shake-flask); format: physicochemical; details: aqueous phosphate buffer, 25 °C, pH 7.4, aqueous buffer, thermodynamic from solid, aqueous phosphate buffer pH 7.4, 24 hours
How it was run: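 Shake-flask method starting from 10 mM DMSO stocks, which are dried before use. Residue equilibrated 24 h at 25° C. in aqueous phosphate buffer, pH 7.4. Dissolved fraction separated and quantified by UPLC/MS/MS, with QC samples in each run.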

[8] = target: hERG potassium channel (Homo sapiens (Human), UniProt Q12809); assay: hERG binding assay (automated patch clamp, CHO cells); format: cell-based; details: CHO cell line, Nanion Syncropatch 384PE
Chain of hERG potassium channel (Q12809 whole entry): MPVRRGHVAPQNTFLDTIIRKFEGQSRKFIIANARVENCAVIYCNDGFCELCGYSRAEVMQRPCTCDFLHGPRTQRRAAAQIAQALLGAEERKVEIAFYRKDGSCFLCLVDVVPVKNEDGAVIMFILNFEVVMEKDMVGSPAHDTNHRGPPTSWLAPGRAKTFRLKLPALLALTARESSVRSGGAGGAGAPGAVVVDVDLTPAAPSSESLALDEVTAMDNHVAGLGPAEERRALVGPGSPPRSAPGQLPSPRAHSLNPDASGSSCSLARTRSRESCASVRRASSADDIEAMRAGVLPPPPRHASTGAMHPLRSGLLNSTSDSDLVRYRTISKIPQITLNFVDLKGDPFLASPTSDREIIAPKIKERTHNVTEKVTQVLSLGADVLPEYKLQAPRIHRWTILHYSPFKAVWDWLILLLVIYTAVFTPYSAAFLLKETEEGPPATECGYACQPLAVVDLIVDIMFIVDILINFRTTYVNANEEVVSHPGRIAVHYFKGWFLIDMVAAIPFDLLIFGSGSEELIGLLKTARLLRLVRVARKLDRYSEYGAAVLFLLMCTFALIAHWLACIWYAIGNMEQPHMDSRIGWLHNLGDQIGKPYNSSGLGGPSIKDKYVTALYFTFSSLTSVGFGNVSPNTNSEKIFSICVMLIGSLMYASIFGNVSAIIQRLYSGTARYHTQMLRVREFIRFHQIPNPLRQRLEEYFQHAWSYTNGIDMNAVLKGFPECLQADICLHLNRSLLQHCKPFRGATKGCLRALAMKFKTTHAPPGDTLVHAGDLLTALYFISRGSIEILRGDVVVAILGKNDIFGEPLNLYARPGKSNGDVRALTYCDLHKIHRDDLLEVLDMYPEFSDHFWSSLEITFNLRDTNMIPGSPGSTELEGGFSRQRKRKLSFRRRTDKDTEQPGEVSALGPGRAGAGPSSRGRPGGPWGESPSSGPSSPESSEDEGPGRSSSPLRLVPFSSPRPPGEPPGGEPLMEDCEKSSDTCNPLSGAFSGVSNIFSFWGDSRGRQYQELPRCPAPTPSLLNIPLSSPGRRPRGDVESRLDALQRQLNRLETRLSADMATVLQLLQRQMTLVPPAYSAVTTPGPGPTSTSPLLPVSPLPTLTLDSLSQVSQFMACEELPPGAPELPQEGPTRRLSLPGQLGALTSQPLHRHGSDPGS
Protocol: Reagent preparations include: • 1.
Cell preparations: • 1. If using cell culture; cells to be incubated at 30° C. for approximately 4-6 days prior to being used. Day of assay lift cells using accutase and re-suspend in 20 ml cell buffer to a density of 0.8 to 1e6 cells/ml. • 2. If using assay ready cryovials; rapidly thaw two cryovials at 37° C. and slowly pipette into 23 ml external solution • 3.
All compounds were acoustically dispensed in quadruplicate using a Labcyte Echo. […] Fill 384 well medium resistance 4 hole chips with 40 μl external buffer and perfuse internal buffer to the underside of plate. • 2. Dispense 20 μl of cells into each well of the chip followed by 20 μl of seal enhancer. • 3. Remove 40 μl of reagent from each well to the wash station, leaving a residual volume of 40 μl • 4. Dispense 40 μl of reference buffer with a removal step of 40 μl after 3 min, repeat this step. • 5.
hERG-mediated currents were elicited using a voltage step protocol consisting of acontinuous holding voltage of −80 mV, with a 500 ms step to 60 mV followed by a 500 ms step to −40 mV every 15 seconds. hERG current magnitude was measured automatically from the leak-subtracted traces by the Nanion software by taking the peak of the hERG “tail” current at −40 mV every 15 seconds and taking the last three of these responses for each concentration to generate the concentration-effect curve.
Calculation of results is performed using APC package within Genedata. For the routine normalization of well data with Neutral and Inhibitor control well groups as reference, GeneData Assay Analyzer uses the following equation to normalize the signal values to the desired signal range:
[formula] • x is the measured raw signal value of a well • is the median of the measured signal values for the Central Reference (Neutral) wells on a plate • is the median of the measured signal values for the Scale Reference (Inhibitor) wells on a plate • CR is the desired median normalized value for the Central Reference (Neutral) • SR is the desired median normalized value for the Scale Reference (Inhibitor)

[9] = 1-octanol/aqueous buffer, pH 7.4, pH 7.4, 1-octanol/aqueous buffer
[10] = pH 7.4, 1-octanol/aqueous buffer

T1 sequence (P03372 whole entry): as the sequence (P03372 whole entry) above

SMILES	MCF7 Western % ER deg vs Fv [1] [%]	Human plasma protein binding (% free) [2] [% free]	logD [3, 9]	IC50 [4] [nM]	CAMA1 Western % ER deg vs Fv [5] [%]	IC50 [6] [nM]	solubility at 24 h [7] [µM]	IC50 [8] [nM]	logD [3, 10]
COc1cc(NC2CN(CCCF)C2)ncc1[C@@H]1c2ccc3[nH]ncc3c2C[C@@H](C)N1CC1(F)CC1 [Example 9, 5-((6S,8R)-7-((1-fluorocyclopropyl)methyl)-8-methyl-6,7,8,9-tetrahydro-3H-pyrazolo[4,3-f]isoquinolin-6-yl)-N-(1-(3-fluoropropyl)azetidin-3-yl)-4-methoxypyridin-2-amine]	−13	21	1	> 300	25	360	> 1000		
COc1cc(NC2CN(CCC(F)(F)F)C2)ccc1[C@@H]1c2ccc3[nH]ncc3c2C[C@@H](C)N1CC1(F)CC1 [Example 56, N-(4-((6S,8R)-7-((1-fluorocyclopropyl)methyl)-8-methyl-6,7,8,9-tetrahydro-3H-pyrazolo[4,3-f]isoquinolin-6-yl)-3-methoxyphenyl)-1-(3,3,3-trifluoropropyl)azetidin-3-amine]	61		3.6	0.58	52	8.2	377 (≈ 200 µg/mL)		
C[C@@H]1Cc2c(ccc3[nH]ncc23)[C@@H](c2c(F)cc(NC3CN(CCCF)C3)cc2F)N1CC(F)(F)F [Example 8, N-(3,5-difluoro-4-((6S,8R)-8-methyl-7-(2,2,2-trifluoroethyl)-6,7,8,9-tetrahydro-3H-pyrazolo[4,3-f]isoquinolin-6-yl)phenyl)-1-(3-fluoropropyl)azetidin-3-amine]	101	0.99	4.4	0.055	100	2	90 (≈ 46 µg/mL)		
C[C@@H]1Cc2c(ccc3[nH]ncc23)[C@@H](c2c(F)cc(NC3CN(CCCF)C3)cc2F)N1CC(F)F [Example 49, N-(4-((6S,8R)-7-(2,2-difluoroethyl)-8-methyl-6,7,8,9-tetrahydro-3H-pyrazolo[4,3-f]isoquinolin-6-yl)-3,5-difluorophenyl)-1-(3-fluoropropyl)azetidin-3-amine]	98		3.8	0.075	99	1.5	163 (≈ 80.4 µg/mL)	8200	
COc1cc(OC2CN(CCCF)C2)ccc1[C@@H]1c2ccc3[nH]ncc3c2C[C@@H](C)N1CC1(F)CC1 [Example 7, (6S,8R)-7-((1-fluorocyclopropyl)methyl)-6-(4-((1-(3-fluoropropyl)azetidin-3-yl)oxy)-2-methoxyphenyl)-8-methyl-6,7,8,9-tetrahydro-3H-pyrazolo[4,3-f]isoquinoline]	90	11		0.4	90	8.4	470 (≈ 233 µg/mL)		3.5
COc1cc(NC2CN(CCCF)C2)c(F)cc1[C@@H]1c2ccc3[nH]ncc3c2C[C@@H](C)N1CC1(F)CC1 [Example 53, N-(2-fluoro-4-((6S,8R)-7-((1-fluorocyclopropyl)methyl)-8-methyl-6,7,8,9-tetrahydro-3H-pyrazolo[4,3-f]isoquinolin-6-yl)-5-methoxyphenyl)-1-(3-fluoropropyl)azetidin-3-amine]	81	11	3.2	0.26	46	5.7	691 (≈ 355 µg/mL)		
C[C@@H]1Cc2c(ccc3[nH]ncc23)[C@@H](c2cnc(NC3CN(CCCF)C3)cn2)N1CC(F)(F)F [Example 42, N-(1-(3-fluoropropyl)azetidin-3-yl)-5-((6S,8R)-8-methyl-7-(2,2,2-trifluoroethyl)-6,7,8,9-tetrahydro-3H-pyrazolo[4,3-f]isoquinolin-6-yl)pyrazin-2-amine]	92		2.4	0.28	79	3.8	712 (≈ 340 µg/mL)	7900	
C[C@@H]1Cc2c(ccc3[nH]ncc23)[C@@H](c2ccc(N(C)C3CN(CCCF)C3)cn2)N1CC(F)(F)F [Example 34, N-(1-(3-fluoropropyl)azetidin-3-yl)-N-methyl-6-((6S,8R)-8-methyl-7-(2,2,2-trifluoroethyl)-6,7,8,9-tetrahydro-3H-pyrazolo[4,3-f]isoquinolin-6-yl)pyridin-3-amine]	85	15		0.22	82	1.9	471 (≈ 231 µg/mL)	7700	3.2
C[C@@H]1Cc2c(ccc3[nH]ncc23)[C@@H](c2ccc(OC3CN(CCCF)C3)cn2)N1CC(F)F [Example 26, (6S,8R)-7-(2,2-difluoroethyl)-6-(5-((1-(3-fluoropropyl)azetidin-3-yl)oxy)pyridin-2-yl)-8-methyl-6,7,8,9-tetrahydro-3H-pyrazolo[4,3-f]isoquinoline]	97	22	3	0.52	97	6.7	258 (≈ 119 µg/mL)		
C[C@@H]1Cc2c(ccc3[nH]ncc23)[C@@H](c2c(F)cc(NC3CN(CCCF)C3)cc2F)N1CC(F)(F)CO [Example 5, 3-((6S,8R)-6-(2,6-difluoro-4-((1-(3-fluoropropyl)azetidin-3-yl)amino)phenyl)-8-methyl-3,6,8,9-tetrahydro-7H-pyrazolo[4,3-f]isoquinolin-7-yl)-2,2-difluoropropan-1-ol]	99	8.6	3.3	0.077	109	2.2	297 (≈ 155 µg/mL)	13000	
